From a compilation of properties of binary mixtures (doi:10.1021/acs.jpcb.0c03296)

Assay: xn = mol fraction of the nth substance listed
Conditions: 100 kPa

C[N+](C)(C)CCO.O=S(=O)([N-]S(=O)(=O)C(F)(F)F)C(F)(F)F + OCCO
Conditions | electrical conductivity, x1 = 0.14 [S/m] | electrical conductivity, x1 = 0.2 [S/m] | electrical conductivity, x1 = 0.333 [S/m] | viscosity, x1 = 0.14 [mPa·s] | viscosity, x1 = 0.2 [mPa·s] | viscosity, x1 = 0.333 [mPa·s]
298.1 K | 0.313 | 0.402 | 0.36 | 22.27 | 28.99 | 30.56
303 K | – | 0.494 | 0.442 | – | 23.44 | 24.82
308.1 K | 0.456 | 0.6 | 0.532 | 14.46 | 18.97 | 20.46
313 K | 0.54 | 0.715 | 0.635 | 12.12 | 15.74 | 17.15
318.1 K | 0.631 | 0.839 | 0.745 | 10.36 | 13.28 | 14.48
323 K | – | 0.975 | 0.866 | – | 11.32 | 12.28
328.1 K | 0.838 | 1.12 | 1 | 7.73 | 9.77 | 10.7
